Assay results reported in patent publication US7981903B2, “2-[2-{phenylamino}-1H-pyrrolo[2,3-D]pyrimidin-4-yl)amino] benzamide derivatives as IGF-1R inhibitors for the treatment of cancer” (GlaxoSmithKline LLC, priority 2007, dated 2011).

Experiments:
Assay type in all cases: biochemical
human IGF1R (hIGF1R) = molecular target: T1, human IGF1R (hIGF1R) (Homo sapiens, UniProt P08069); experiment: TR-FRET kinase assay of purified hIGF1R; conditions: activated hIGF1R 0.5 nM, 10 μM ATP, values given as pIC50 category, read-out: IGF-1R pIC50 (converted)
T1 construct: containing amino acid residues 957-1367 of human IGF1R; made in house; host or cells: Sf9 cells (baculovirus)
T1 sequence (P08069 957-1367): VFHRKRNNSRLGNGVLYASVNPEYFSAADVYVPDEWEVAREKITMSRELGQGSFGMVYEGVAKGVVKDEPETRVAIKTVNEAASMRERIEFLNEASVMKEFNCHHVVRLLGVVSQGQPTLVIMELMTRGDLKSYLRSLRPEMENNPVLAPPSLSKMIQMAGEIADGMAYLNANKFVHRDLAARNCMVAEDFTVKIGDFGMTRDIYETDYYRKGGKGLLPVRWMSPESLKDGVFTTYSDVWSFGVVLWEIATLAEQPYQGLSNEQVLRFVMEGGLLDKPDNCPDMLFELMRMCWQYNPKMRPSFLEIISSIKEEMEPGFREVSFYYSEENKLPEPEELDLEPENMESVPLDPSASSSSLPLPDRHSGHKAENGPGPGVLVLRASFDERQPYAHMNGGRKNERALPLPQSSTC
Method: (§1) Time Resolved Fluorescence Resonance Energy Transfer (TR-FRET) assays were carried out on the exemplified compounds as follows:
(§2) Purity is determined by HPLC. The calculated molecular mass of the peptide is 2216 dalton. Tyrosine phosphorylation by human IGF1R (hIGF1R) or human IR (hIR) occurs as indicated (Y*) in the peptide sequence described. Solid peptide sample is dissolved to approximately 1 mM in DMSO, aliquoted, and stored at −20° C. until use. True peptide concentration is determined by amino acid analysis.
hIGF1R: GST-rTEV-IGF-1R(957-1367) containing amino acid residues 957-1367 of human IGF1R (as annotated by National Center for Biotechnology Information (NCBI) accession number NP_000866) is purified from a baculovirus expression system in Sf9 cells using Glutathione Sepharose 4FF column chromatography followed by Sephadex-200 size exclusion column chromatography. […] Samples, in 25 mM Tris-HCl, 250 mM NaCl, 5% glycerol, 1 mM DTT, pH 7.5, are stored at −80° C. until use.
(§3) hIGF1R: Activation of GST-rTEV-IGF-1R(957-1367) is achieved by a 4 minute incubation of hIGF1R (2.7 μM final) with 2 mM ATP in 50 mM HEPES, 20 mM MgCL2, 0.1 mg/ml BSA, at room temperature. Autophosphorylation is stopped by addition of EDTA (to 100 mM final). Aliquoted samples are flash frozen in liquid nitrogen and stored at −80° C. until use.
(§4) Assays are performed in 384-well (Greiner, Catalog No. 784076) microtiter plates. Reaction buffer (50 mM HEPES buffer, pH 7.5; 10 mM MgCL2; 3 mM DTT; 1 mM CHAPS; 0.1 mg/ml BSA) for peptide phosphorylation (10 μl volume) contained, in final concentrations, 500 nM biotinylated peptide substrate; 10 μM ATP; and purified, activated hIGF1R or hIR (0.5 nM). Compounds, titrated in DMSO, are evaluated at eleven concentrations ranging from 50 μM to 0.2 nM. […] Reactions are incubated for 1 hour at room temperature and are stopped by a 5 μl addition of EDTA (to 33 mM). A further addition of 5 μl detection reagents (for final 7 nM Streptavidin-APC (Perkin Elmer #CR^130-150), 1 nM Europium-labeled anti-phosphotyrosine monoclonal antibody (PerkinElmer #AD0067), added in reaction buffer (without DTT), is required for signal generation. After 30 minutes, signal is read on PerkinElmer Viewlux microplate imager or Wallac Victor fluorometer.
(§5) The data for compound concentration responses were plotted as % Inhibition, calculated with the data reduction formula 100*(1-[(U1-C2)/(C1-C2)]), versus concentration of compound, where • U is the unknown value, • C1 is the average control value obtained for DMSO only, and • C2 is the average control value obtained for reactions stopped with EDTA at • t=0.
(§6) Data were fitted to the curve described by: y=((Vmax*x)/(K+x)) where • Vmax is the upper asymptote and • K is the IC50.

human IR (hIR) = molecular target: T2, human IR (hIR) (Homo sapiens, UniProt P06213); experiment: TR-FRET kinase assay of purified hIR; conditions: activated hIR 0.5 nM, 10 μM ATP, values given as pIC50 category
T2 construct: containing amino acid residues 979-1382 of human IR; made in house; host or cells: Sf9 cells (baculovirus), same process as hIGF1R
T2 sequence (P06213 979-1382): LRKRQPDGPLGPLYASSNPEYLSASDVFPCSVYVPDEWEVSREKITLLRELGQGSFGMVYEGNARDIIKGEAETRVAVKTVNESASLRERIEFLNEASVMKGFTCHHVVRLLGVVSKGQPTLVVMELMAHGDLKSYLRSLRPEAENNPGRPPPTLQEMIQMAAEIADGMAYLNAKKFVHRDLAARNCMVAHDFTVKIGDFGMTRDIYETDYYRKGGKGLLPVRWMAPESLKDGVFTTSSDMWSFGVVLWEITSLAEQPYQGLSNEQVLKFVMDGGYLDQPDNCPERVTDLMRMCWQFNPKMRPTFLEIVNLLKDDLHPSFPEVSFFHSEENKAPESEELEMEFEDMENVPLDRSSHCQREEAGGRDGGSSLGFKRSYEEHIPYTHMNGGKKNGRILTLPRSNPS
Method: as §1, §2
hIR: GST-rTEV-IR(979-1382) containing amino acid residues 979-1382 of human IR (as annotated by NCBI accession number NP_000199) is expressed and purified by the same process as hIGF1R. […] Samples, in 25 mM Tris-HCl, 250 mM NaCl, 5% glycerol, 1 mM DTT, pH 7.5, are stored at −80° C. until use.
as §3, with “hIR:” for “hIGF1R:”, “5” for “4”, “hIR” for “hIGF1R”, “100” for “50”, “10” for “20”
as §4, §5, §6

ALK = ALK (Homo sapiens, UniProt Q9UM73); experiment: ALK enzyme assay (HTRF); conditions: 0.25 nM ALK, 15.0 μM ATP, values given as pIC50 category
Sequence of ALK (Q9UM73 19-1620): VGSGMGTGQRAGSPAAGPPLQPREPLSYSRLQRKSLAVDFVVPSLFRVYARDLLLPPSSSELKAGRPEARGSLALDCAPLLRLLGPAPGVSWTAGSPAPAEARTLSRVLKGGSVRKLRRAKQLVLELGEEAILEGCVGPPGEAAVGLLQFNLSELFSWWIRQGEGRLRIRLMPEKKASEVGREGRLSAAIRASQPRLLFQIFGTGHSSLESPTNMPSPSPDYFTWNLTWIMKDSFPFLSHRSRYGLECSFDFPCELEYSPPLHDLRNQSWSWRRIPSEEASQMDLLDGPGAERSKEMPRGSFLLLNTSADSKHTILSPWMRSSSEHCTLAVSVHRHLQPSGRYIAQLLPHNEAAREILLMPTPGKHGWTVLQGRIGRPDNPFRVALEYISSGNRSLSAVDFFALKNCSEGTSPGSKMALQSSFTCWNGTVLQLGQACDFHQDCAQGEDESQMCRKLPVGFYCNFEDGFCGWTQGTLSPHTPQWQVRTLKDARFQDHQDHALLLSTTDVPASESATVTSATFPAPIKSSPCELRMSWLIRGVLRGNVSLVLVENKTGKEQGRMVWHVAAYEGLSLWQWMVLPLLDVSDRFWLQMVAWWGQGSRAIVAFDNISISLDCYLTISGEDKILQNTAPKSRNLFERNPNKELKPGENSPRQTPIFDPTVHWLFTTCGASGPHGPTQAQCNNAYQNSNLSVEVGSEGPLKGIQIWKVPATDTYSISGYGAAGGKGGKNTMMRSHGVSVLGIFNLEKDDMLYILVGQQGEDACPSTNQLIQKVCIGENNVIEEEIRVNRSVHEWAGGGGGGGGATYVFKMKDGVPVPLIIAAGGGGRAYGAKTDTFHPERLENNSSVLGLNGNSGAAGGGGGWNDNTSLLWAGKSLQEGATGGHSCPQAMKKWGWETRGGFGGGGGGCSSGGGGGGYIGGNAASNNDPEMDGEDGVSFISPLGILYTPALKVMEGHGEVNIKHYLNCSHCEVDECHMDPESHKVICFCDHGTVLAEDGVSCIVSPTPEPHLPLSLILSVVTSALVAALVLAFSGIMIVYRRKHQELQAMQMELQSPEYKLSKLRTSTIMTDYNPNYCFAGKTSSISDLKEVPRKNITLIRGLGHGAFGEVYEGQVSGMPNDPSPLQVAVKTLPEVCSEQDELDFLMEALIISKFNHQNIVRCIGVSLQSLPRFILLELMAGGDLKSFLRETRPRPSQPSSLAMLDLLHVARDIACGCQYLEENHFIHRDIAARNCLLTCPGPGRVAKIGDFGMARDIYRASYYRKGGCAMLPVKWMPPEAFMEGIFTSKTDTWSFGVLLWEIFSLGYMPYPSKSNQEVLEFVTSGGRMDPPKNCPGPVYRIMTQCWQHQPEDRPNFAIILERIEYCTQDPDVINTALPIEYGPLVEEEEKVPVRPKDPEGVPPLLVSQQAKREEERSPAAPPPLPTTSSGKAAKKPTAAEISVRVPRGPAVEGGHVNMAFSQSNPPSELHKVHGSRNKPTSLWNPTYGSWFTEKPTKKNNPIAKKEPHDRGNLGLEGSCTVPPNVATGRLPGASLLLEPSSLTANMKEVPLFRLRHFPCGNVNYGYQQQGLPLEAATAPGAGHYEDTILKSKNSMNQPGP
Method: The method measures the ability of the isolated enzyme to catalyse the transfer of the gamma-phosphate from ATP onto the tyrosine residue of a biotinylated synthetic peptide. The extent of tyrosine phosphorylation was measured using an anti-phosphotyrosine antibody, and quantified by homogenous time-resolved fluorescence (HTRF) assay purchased from CisBio (62TK0PEJ).
Reactions were performed in black 384-well polystyrene low volume plates in a final volume of 5 μl.
The reactions were then started by adding the substrate mix. The reactions were allowed to proceed for 120 minutes at 20° C. The reactions were then terminated by the addition of 5 μl HTRF detection mix to each well. The final concentrations of the detection reagents were: 50 mM HEPES (pH7.0); 0.1% BSA; 0.8 M KF; 20 mM EDTA; 1 mM CHAPS; TK-antibody Europium Cryptate; and 41 nM streptavidin-XL665. Assay plates were left unsealed, stacked and incubated at 20° for 60 minutes. Quantification of activity was achieved by counting in an Envision Counter (PerkinElmer).
Compounds under analysis were dissolved in Me2SO to 1.0 mM and serially diluted 1 to 3 with Me2SO through twelve dilutions. 0.05 μl of each concentration was transferred to the corresponding well of an assay plate. This creates a final compound concentration range from 0.00017 to 10 μM.
The data for dose responses were plotted as % Inhibition calculated with the data reduction formula 100*(1-(U1-C2)/(C1-C2)) versus concentration of compound where U is the unknown value, C1 is the average control value obtained for 1% DMSO, and C2 is the average control value obtained for 0.1 M EDTA. Data were fitted with a curve described by:
[formula] where A is the minimum y, B is the maximum y concentration [M], D is the slope factor, and x is the log10 of the compound.

| Structure (SMILES) | IC50 (human IGF1R (hIGF1R)) | IC50 (human IR (hIR)) | IC50 (ALK) |
| --- | --- | --- | --- |
| CCCN1CCC=C(c2ccc(Nc3nc(Nc4ccccc4C(N)=O)c4cc[nH]c4n3)c(C)c2)C1 [Example 1, 2-[(2-{[2-methyl-4-(1-propyl-1,2,5,6-tetrahydro-3-pyridinyl)phenyl]amino}-1H-pyrrolo[2,3-d]pyrimidin-4-yl)amino]benzamide] | 5.01 to 200 nM | 5.01 to 158 nM | 0.251 to 1 nM |
| Cc1ccc(NC(=O)CN(C)C)cc1Nc1nc(Nc2ccccc2C(N)=O)c2cc[nH]c2n1 [Example 13, 2-{[2-({5-[(N,N-dimethylglycyl)amino]-2-methylphenyl}amino)-1H-pyrrolo[2,3-d]pyrimidin-4-yl]amino}benzamide] | 1.26 to 3.98 nM | 0.251 to 1 nM | 1.26 to 3.98 nM |
| COc1cc(CS(C)(=O)=O)ccc1Nc1nc(Nc2ccccc2C(N)=O)c2cc[nH]c2n1 [Example 19, 2-{[2-({2-(methyloxy)-4-[(methylsulfonyl)methyl]phenyl}amino)-1H-pyrrolo[2,3-d]pyrimidin-4-yl]amino}benzamide] | 1.26 to 3.98 nM | 1.26 to 3.98 nM | 1.26 to 3.98 nM |
| COc1ccc(CS(C)(=O)=O)cc1Nc1nc(Nc2ccccc2C(N)=O)c2cc[nH]c2n1 [Example 20, 2-{[2-({2-(methyloxy)-5-[(methylsulfonyl)methyl]phenyl}amino)-1H-pyrrolo[2,3-d]pyrimidin-4-yl]amino}benzamide] | 5.01 to 200 nM | 5.01 to 158 nM | 5.01 to 200 nM |
| CCCN1CCC=C(c2ccc(Nc3nc(Nc4ccc(C)cc4C(N)=O)c4cc[nH]c4n3)c(C)c2)C1 [Example 32, 5-methyl-2-[(2-{[2-methyl-4-(1-propyl-1,2,5,6-tetrahydro-3-pyridinyl)phenyl]amino}-1H-pyrrolo[2,3-d]pyrimidin-4-yl)amino]benzamide] | 1.26 to 3.98 nM | 1.26 to 3.98 nM | 1.26 to 3.98 nM |
| Cc1ccc(Nc2nc(Nc3cc(NC(=O)CN(C)C)ccc3C)nc3[nH]ccc23)c(C(N)=O)c1 [Example 34, 2-{[2-({5-[(N,N-dimethylglycyl)amino]-2-methylphenyl}amino)-1H-pyrrolo[2,3-d]pyrimidin-4-yl]amino}-5-methylbenzamide] | 5.01 to 200 nM | 1.26 to 3.98 nM | 5.01 to 200 nM |
| CCCN1CCC=C(c2ccc(Nc3nc(Nc4cc(C)ccc4C(N)=O)c4cc[nH]c4n3)c(C)c2)C1 [Example 35, 4-methyl-2-[(2-{[2-methyl-4-(1-propyl-1,2,5,6-tetrahydro-3-pyridinyl)phenyl]amino}-1H-pyrrolo[2,3-d]pyrimidin-4-yl)amino]benzamide] | 5.01 to 200 nM | 5.01 to 158 nM | 5.01 to 200 nM |
| CCCN1CCC=C(c2ccc(Nc3nc(Nc4ccc(OC)cc4C(N)=O)c4cc[nH]c4n3)c(C)c2)C1 [Example 37, 5-(methyloxy)-2-[(2-{[2-methyl-4-(1-propyl-1,2,5,6-tetrahydro-3-pyridinyl)phenyl]amino}-1H-pyrrolo[2,3-d]pyrimidin-4-yl)amino]benzamide] | 5.01 to 200 nM |  | 1.26 to 3.98 nM |
| Cc1ccc(NC(=O)CN(C)C)cc1Nc1nc(Nc2ccc(Cl)cc2C(N)=O)c2cc[nH]c2n1 [Example 109, 5-chloro-2-{[2-({5-[(N,N-dimethylglycyl)amino]-2-methylphenyl}amino)-1H-pyrrolo[2,3-d]pyrimidin-4-yl]amino}benzamide] | 1.26 to 3.98 nM | 0.251 to 1 nM | 5.01 to 200 nM |
| COc1cc2c(cc1Nc1nc(Nc3cccc(F)c3C(N)=O)c3cc[nH]c3n1)N(C(=O)CN1CCC(O)C1)CC2 (centres unmarked) [Example 181, 2-fluoro-6-[(2-{[1-[(3-hydroxy-1-pyrrolidinyl)acetyl]-5-(methyloxy)-2,3-dihydro-1H-indol-6-yl]amino}-1H-pyrrolo[2,3-d]pyrimidin-4-yl)amino]benzamide] |  |  | 1.26 to 3.98 nM |
| CNC(=O)c1c(F)cccc1Nc1nc(Nc2cc3c(cc2OC)CCN3C(=O)CN2CCC(O)C2)nc2[nH]ccc12 (centres unmarked) [Example 182, 2-fluoro-6-[(2-{[1-[(3-hydroxy-1-pyrrolidinyl)acetyl]-5-(methyloxy)-2,3-dihydro-1H-indol-6-yl]amino}-1H-pyrrolo[2,3-d]pyrimidin-4-yl)amino]-N-methylbenzamide] |  |  | 0.251 to 1 nM |
| COc1cc2c(cc1Nc1nc(Nc3cccc(F)c3C(N)=O)c3cc[nH]c3n1)N(C(=O)CN1CCCC(O)C1)CC2 (centres unmarked) [Example 183, 2-fluoro-6-[(2-{[1-[(3-hydroxy-1-piperidinyl)acetyl]-5-(methyloxy)-2,3-dihydro-1H-indol-6-yl]amino}-1H-pyrrolo[2,3-d]pyrimidin-4-yl)amino]benzamide] |  |  | 0.251 to 1 nM |
| CNC(=O)c1c(F)cccc1Nc1nc(Nc2cc3c(cc2OC)CCN3C(=O)CN2CCCC(O)C2)nc2[nH]ccc12 (centres unmarked) [Example 184, 2-fluoro-6-[(2-{[1-[(3-hydroxy-1-piperidinyl)acetyl]-5-(methyloxy)-2,3-dihydro-1H-indol-6-yl]amino}-1H-pyrrolo[2,3-d]pyrimidin-4-yl)amino]-N-methylbenzamide] |  |  | 1.26 to 3.98 nM |
| COc1cc2c(cc1Nc1nc(Nc3ccccc3C(N)=O)c3cc[nH]c3n1)N(C(=O)CN(C)C)CC2 [Example 240, 2-[(2-{[1-(N,N-dimethylglycyl)-5-(methyloxy)-2,3-dihydro-1H-indol-6-yl]amino}-1H-pyrrolo[2,3-d]pyrimidin-4-yl)amino]benzamide] |  |  | 0.251 to 1 nM |
| CNC(=O)c1ccccc1Nc1nc(Nc2cc3c(cc2OC)CCN3C(=O)CN(C)C)nc2[nH]ccc12 [Example 241, 2-[(2-{[1-(N,N-dimethylglycyl)-5-(methyloxy)-2,3-dihydro-1H-indol-6-yl]amino}-1H-pyrrolo[2,3-d]pyrimidin-4-yl)amino]-N-methylbenzamide] |  |  | 5.01 to 200 nM |
